Results as given in patent publication US7989497B2, “Squaramide derivatives as CXCR2 antagonist” (Novartis AG, priority 2008, dated 2011).

target: T1, human CXCR2 receptor (Homo sapiens, UniProt P25025); assay: [35S]-GTPγS binding assay for human CXCR2 receptor using SPA technology; format: biochemical; conditions: CHO-K1 membranes expressing human CXCR2, 100 nM IL-8
T1 construct: purchased Biosignal Packard Inc; host or cells: CHO-K1 (Chinese hamster ovary) cell membranes
T1 sequence (P25025 1-360): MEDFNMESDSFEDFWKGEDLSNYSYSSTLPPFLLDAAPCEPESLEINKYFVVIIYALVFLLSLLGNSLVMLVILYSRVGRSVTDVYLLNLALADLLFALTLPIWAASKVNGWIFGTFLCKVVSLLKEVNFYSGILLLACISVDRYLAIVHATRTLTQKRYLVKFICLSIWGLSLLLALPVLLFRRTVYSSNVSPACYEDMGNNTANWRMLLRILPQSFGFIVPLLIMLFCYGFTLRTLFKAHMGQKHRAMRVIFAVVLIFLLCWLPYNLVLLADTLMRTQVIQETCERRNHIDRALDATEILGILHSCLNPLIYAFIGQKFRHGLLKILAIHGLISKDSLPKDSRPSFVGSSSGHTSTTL
From the text: [^35S]-GTPγS Binding Assay for Human CXCR2 Receptor Using SPA Technology
[^35S]-GTPγS (with specific activity 1082 Ci/mmol) and wheat germ agglutinin poly vinyl toluene scintillation proximity beads are purchased from Amersham Pharmacia Biotech. The Chinese hamster ovary cell (CHO-K1) membranes expressing human CXCR2 receptors are purchased from Biosignal Packard Inc. All other chemicals are of analytical grade. White non-binding surface 96 well Optiplate™ microplates are obtained from Packard. Recombinant human IL-8 is synthesised, cloned and expressed in Escherichia coli as described previously (Lindley I, et al., Proc. Natl. Acad. Sci., 1988, 85(23):9199).
The assay is performed in duplicate in 96 well Optiplate™ microplate in a final volume of 250 μl per well. Compounds are diluted in DMSO (0.5% final concentration) and incubated in 20 mM HEPES buffer pH 7.4 containing 10 mM MgCl2, 100 mM NaCl, 1 mM EDTA plus 100 nM IL-8, 50 μM GDP and 500 pM [^35S]GTPγS per well. SPA beads (1 mg/well final concentration) were pre-mixed with the membranes (10 μg/well final concentration) in assay buffer: 20 mM HEPES buffer pH 7.4 containing 10 mM MgCl2, 100 mM NaCl, 1 mM EDTA. The bead membrane mixture is added to each well, plates are sealed and incubated at room temperature for 60 minutes. The plate is centrifuged and read on Packard TopCount™ scintillation counter, program [^35S dpm] for 1 min/well. Data are expressed as the % response to 100 nM IL-8 minus basal.

In order of falling IC50:
1. CON(C)S(=O)(=O)c1c(Cl)ccc(Nc2c(N[C@H](C)c3cnn(C)c3)c(=O)c2=O)c1O [Example 2.95, (R)-6-chloro-2-hydroxy-N-methoxy-N-methyl-3-(2-(1-(1-methyl-1H-pyrazol-4-yl)ethylamino)-3,4-dioxocyclobut-1-enylamino)benzenesulfonamide]  0.283 µM
2. CCC(Nc1c(Nc2ccc(Cl)c(S(=O)(=O)N(C)OC)c2O)c(=O)c1=O)c1cccc(C)n1 (stereo not shown) [Example 2.27, 6-chloro-2-hydroxy-N-methoxy-N-methyl-3-(2-(1-(6-methylpyridin-2-yl)propylamino)-3,4-dioxocyclobut-1-enylamino)benzenesulfonamide]  0.234 µM
3. CCC(Nc1c(Nc2ccc(Cl)c(S(=O)(=O)N(C)OC)c2O)c(=O)c1=O)c1cccnc1 (stereo not shown) [Example 2.50, 6-chloro-3-(3,4-dioxo-2-(1-(pyridin-3-yl)propylamino)cyclobut-1-enylamino)-2-hydroxy-N-methoxy-N-methylbenzenesulfonamide]  0.093 µM
4. CC[C@@H](Nc1c(Nc2cccc(S(=O)(=O)N(CC)OC)c2O)c(=O)c1=O)[C@@H]1CCCO1 [Example 2.71, 3-(3,4-dioxo-2-((R)-1-((S)-tetrahydrofuran-2-yl)propylamino)cyclobut-1-enylamino)-N-ethyl-2-hydroxy-N-methoxybenzenesulfonamide]  0.056 µM
5. CON(C)S(=O)(=O)c1c(Cl)ccc(Nc2c(N[C@H](C)c3ccccc3)c(=O)c2=O)c1O [Example 5, 6-Chloro-3-[3,4-dioxo-2-((R)-1-phenyl-ethylamino)-cyclobut-1-enylamino]-2-hydroxy-N-methoxy-N-methyl-benzenesulfonamide]  0.033 µM
6. CON(C)S(=O)(=O)c1c(Cl)ccc(Nc2c(NC3CCCC3)c(=O)c2=O)c1O [Example 2.60, 6-chloro-3-(2-(cyclopentylamino)-3,4-dioxocyclobut-1-enylamino)-2-hydroxy-N-methoxy-N-methylbenzenesulfonamide]  0.03 µM
7. CCN(OC)S(=O)(=O)c1c(Cl)ccc(Nc2c(N[C@H](C)c3ccccc3)c(=O)c2=O)c1O [Example 2.58, (R)-6-chloro-3-(3,4-dioxo-2-(1-phenylethylamino)cyclobut-1-enylamino)-N-ethyl-2-hydroxy-N-methoxybenzenesulfonamide]  0.028 µM
8. CC[C@@H](Nc1c(Nc2ccc(Cl)c(S(=O)(=O)N(C)OC)c2O)c(=O)c1=O)[C@H]1CC[C@@H](C)O1 [Example 6, 6-Chloro-2-hydroxy-N-methoxy-N-methyl-3-{2-[(R)-1-((2R,5R)-5-methyl-tetrahydro-furan-2-yl)-propylamino]-3,4-dioxo-cyclobut-1-enylamino}-benzene sulfonamide]  0.028 µM
9. CON(C)S(=O)(=O)c1c(Cl)ccc(Nc2c(N[C@H]3CCSC3)c(=O)c2=O)c1O [Example 3, 6-Chloro-3-{3,4-dioxo-2-[(S)-(tetrahydro-thiophen-3-yl)amino]-cyclobut-1-enylamino}-2-hydroxy-N-methoxy-N-methyl-benzenesulfonamide]  0.026 µM
10. CCCC(CCC)Nc1c(Nc2ccc(Cl)c(S(=O)(=O)N(C)OC)c2O)c(=O)c1=O [Example 2.57, 6-chloro-3-(2-(heptan-4-ylamino)-3,4-dioxocyclobut-1-enylamino)-2-hydroxy-N-methoxy-N-methylbenzenesulfonamide]  0.026 µM
11. COCC(C)Nc1c(Nc2ccc(Cl)c(S(=O)(=O)N(C)OC)c2O)c(=O)c1=O (stereo not shown) [Example 2.23, 6-chloro-2-hydroxy-N-methoxy-3-(2-(1-methoxypropan-2-ylamino)-3,4-dioxocyclobut-1-enylamino)-N-methylbenzenesulfonamide]  0.021 µM
12. CCOC[C@H](C)Nc1c(Nc2ccc(Cl)c(S(=O)(=O)N(C)OC)c2O)c(=O)c1=O [Example 2.47, (S)-6-chloro-3-(2-(1-ethoxypropan-2-ylamino)-3,4-dioxocyclobut-1-enylamino)-2-hydroxy-N-methoxy-N-methylbenzenesulfonamide]  0.019 µM
13. CC[C@@H](Nc1c(Nc2ccc(Cl)c(S(=O)(=O)N(CC)OC)c2O)c(=O)c1=O)c1ccc(C)o1 [Example 2.43, (R)-6-chloro-N-ethyl-2-hydroxy-N-methoxy-3-(2-(1-(5-methylfuran-2-yl)propylamino)-3,4-dioxocyclobut-1-enylamino)benzenesulfonamide]  0.017 µM
14. CON(C)S(=O)(=O)c1c(Cl)ccc(Nc2c(NC(C)C)c(=O)c2=O)c1O [Example 2.35, 6-chloro-2-hydroxy-3-(2-(isopropylamino)-3,4-dioxocyclobut-1-enylamino)-N-methoxy-N-methylbenzenesulfonamide]  0.014 µM
15. CCC(Nc1c(Nc2ccc(Cl)c(S(=O)(=O)N(C)OC)c2O)c(=O)c1=O)[C@H]1CCCO1 (stereo in doubt) [Example 4, 6-Chloro-3-{3,4-dioxo-2-[(R)-1-(tetrahydro-furan-2-yl)-propylamino]-cyclobut-1-enylamino}-2-hydroxy-N-methoxy-N-methyl-benzenesulfonamide]  0.013 µM
16. CC[C@@H](Nc1c(Nc2ccc(Cl)c(S(=O)(=O)N3C[C@H](O)CO3)c2O)c(=O)c1=O)[C@H]1CC[C@@H](C)O1 [Example 2.32, 3-(4-chloro-2-hydroxy-3-((S)-4-hydroxyisoxazolidin-2-ylsulfonyl)phenylamino)-4-((R)-1-((2R,5R)-5-methyltetrahydrofuran-2-yl)propylamino)cyclobut-3-ene-1,2-dione]  0.011 µM
17. CCN(OC)S(=O)(=O)c1c(Cl)ccc(Nc2c(NC(C)C)c(=O)c2=O)c1O [Example 2.19, 6-chloro-N-ethyl-2-hydroxy-3-(2-(isopropylamino)-3,4-dioxocyclobut-1-enylamino)-N-methoxybenzenesulfonamide]  0.009 µM
18. CON(C)S(=O)(=O)c1c(Cl)ccc(Nc2c(NC(C3CC3)C3CC3)c(=O)c2=O)c1O [Example 2.17, 6-chloro-3-(2-(dicyclopropylmethylamino)-3,4-dioxocyclobut-1-enylamino)-2-hydroxy-N-methoxy-N-methylbenzenesulfonamide]  0.008 µM
19. CC[C@@H](Nc1c(Nc2ccc(Cl)c(S(=O)(=O)N(CC)OC)c2O)c(=O)c1=O)[C@H]1CCCO1 [Example 2.13, 6-Chloro-3-{3,4-dioxo-2-[(R)-(R)-1-(tetrahydro-furan-2-yl)-propylamino]-cyclobut-1-enylamino}-N-ethyl-2-hydroxy-N-methoxy-benzene sulfonamide]  0.006 µM
20. CCC(CC)Nc1c(Nc2ccc(Cl)c(S(=O)(=O)N(C)OC)c2O)c(=O)c1=O [Example 8, 6-Chloro-3-[2-(1-ethyl-propylamino)-3,4-dioxo-cyclobut-1-enylamino]-2-hydroxy-N-methoxy-N-methyl-benzenesulfonamide]  0.005 µM
21. CC[C@@H](Nc1c(Nc2ccc(Cl)c(S(=O)(=O)N(C)OC)c2O)c(=O)c1=O)c1ccccn1 [Example 7, 6-Chloro-3-[3,4-dioxo-2-((R)-1-pyridin-2-yl-propylamino)-cyclobut-1-enylamino]-2-hydroxy-N-methoxy-N-methyl-benzenesulfonamide]  0.004 µM
22. CC[C@@H](Nc1c(Nc2ccc(Cl)c(S(=O)(=O)N(C)OC)c2O)c(=O)c1=O)c1ccc(C)o1 [Example 2, 6-Chloro-2-hydroxy-N-methoxy-N-methyl-3-{2-[(R)-1-(5-methyl-furan-2-yl)-propylamino]-3,4-dioxo-cyclobut-1-enylamino}-benzenesulfonamide]  0.002 µM
